For assay [1], the system named is K562. Nature of the assay: Antiproliferative activity against human imatinib-resistant K562 cells. In kind it is functional, cell-based.
For assay [2], the system named is K562. Nature of the assay: Antiproliferative activity against human K562 cells. In kind it is functional, cell-based.
Assay [3] can be described thus: Antiproliferative activity against human KU812 cells. Type of assay: functional, cell-based.
The next assay addresses Bcr/Abl fusion protein (Homo sapiens, UniProt P00519). In words: Inhibition of Bcr/Abl by FRET-based Z-lyte assay. Type of assay: protein assay.
The subject of assay [4] is K562. In words: Induction of apoptosis in human K562 cells assessed as viable cells at 50 nM using annexin V-propidium iodide and annexin V staining by flow cytometry (reference value: 87.02%). Type of assay: functional. To be noted: read-out: Activity. (In general: In flow cytometry, cells or beads pass a laser one at a time.)
For assay [5], the system named is K562. In words: Induction of apoptosis in human K562 cells assessed as pre-necrotic cells at 20 nM using annexin V-propidium iodide and annexin V staining by flow cytometry (reference value: 1.42%). In kind it is functional.
The target of assay [6] is Bcr/Abl fusion protein (Homo sapiens) (UniProt P00519+P11274). In words: Inhibition of Bcr/Abl autophosphorylation in human K562 cells after 4 hrs by Western blotting. In kind it is cell-based. On the technique in general: In western blotting, separated proteins are transferred to a membrane and probed.
Chain of Bcr/Abl fusion protein (Homo sapiens) (P00519 whole entry, looked up, the tested form may be a part): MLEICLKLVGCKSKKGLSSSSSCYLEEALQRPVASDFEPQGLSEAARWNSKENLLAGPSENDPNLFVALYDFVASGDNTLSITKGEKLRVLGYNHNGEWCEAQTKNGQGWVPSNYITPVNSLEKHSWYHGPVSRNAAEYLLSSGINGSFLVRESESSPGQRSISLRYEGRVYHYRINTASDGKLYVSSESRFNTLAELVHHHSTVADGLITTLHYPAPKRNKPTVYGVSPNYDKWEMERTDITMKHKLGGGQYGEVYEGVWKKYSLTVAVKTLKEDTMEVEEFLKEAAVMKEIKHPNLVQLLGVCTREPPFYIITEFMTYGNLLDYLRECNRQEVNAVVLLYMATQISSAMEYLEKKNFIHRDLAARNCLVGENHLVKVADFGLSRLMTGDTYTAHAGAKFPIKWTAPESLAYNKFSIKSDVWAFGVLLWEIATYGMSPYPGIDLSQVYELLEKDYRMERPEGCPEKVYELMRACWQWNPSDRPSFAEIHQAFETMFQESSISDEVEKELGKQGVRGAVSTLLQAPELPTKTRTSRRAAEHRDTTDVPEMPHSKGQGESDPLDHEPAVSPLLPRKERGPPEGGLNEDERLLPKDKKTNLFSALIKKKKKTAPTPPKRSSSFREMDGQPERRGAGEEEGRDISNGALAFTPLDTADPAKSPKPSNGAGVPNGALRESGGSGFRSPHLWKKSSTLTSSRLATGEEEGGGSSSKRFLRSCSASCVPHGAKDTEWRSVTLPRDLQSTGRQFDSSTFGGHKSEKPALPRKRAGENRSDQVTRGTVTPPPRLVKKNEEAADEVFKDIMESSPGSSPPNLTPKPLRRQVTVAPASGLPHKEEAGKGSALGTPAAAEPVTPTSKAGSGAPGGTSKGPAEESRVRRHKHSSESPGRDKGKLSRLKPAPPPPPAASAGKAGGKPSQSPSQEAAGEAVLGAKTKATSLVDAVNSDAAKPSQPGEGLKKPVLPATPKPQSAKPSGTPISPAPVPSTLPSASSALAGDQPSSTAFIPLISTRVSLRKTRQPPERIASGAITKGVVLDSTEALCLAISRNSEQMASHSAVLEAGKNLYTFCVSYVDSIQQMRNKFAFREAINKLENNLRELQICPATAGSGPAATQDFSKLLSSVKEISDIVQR
Chain of Bcr/Abl fusion protein (Homo sapiens) (P11274 whole entry, looked up, the tested form may be a part): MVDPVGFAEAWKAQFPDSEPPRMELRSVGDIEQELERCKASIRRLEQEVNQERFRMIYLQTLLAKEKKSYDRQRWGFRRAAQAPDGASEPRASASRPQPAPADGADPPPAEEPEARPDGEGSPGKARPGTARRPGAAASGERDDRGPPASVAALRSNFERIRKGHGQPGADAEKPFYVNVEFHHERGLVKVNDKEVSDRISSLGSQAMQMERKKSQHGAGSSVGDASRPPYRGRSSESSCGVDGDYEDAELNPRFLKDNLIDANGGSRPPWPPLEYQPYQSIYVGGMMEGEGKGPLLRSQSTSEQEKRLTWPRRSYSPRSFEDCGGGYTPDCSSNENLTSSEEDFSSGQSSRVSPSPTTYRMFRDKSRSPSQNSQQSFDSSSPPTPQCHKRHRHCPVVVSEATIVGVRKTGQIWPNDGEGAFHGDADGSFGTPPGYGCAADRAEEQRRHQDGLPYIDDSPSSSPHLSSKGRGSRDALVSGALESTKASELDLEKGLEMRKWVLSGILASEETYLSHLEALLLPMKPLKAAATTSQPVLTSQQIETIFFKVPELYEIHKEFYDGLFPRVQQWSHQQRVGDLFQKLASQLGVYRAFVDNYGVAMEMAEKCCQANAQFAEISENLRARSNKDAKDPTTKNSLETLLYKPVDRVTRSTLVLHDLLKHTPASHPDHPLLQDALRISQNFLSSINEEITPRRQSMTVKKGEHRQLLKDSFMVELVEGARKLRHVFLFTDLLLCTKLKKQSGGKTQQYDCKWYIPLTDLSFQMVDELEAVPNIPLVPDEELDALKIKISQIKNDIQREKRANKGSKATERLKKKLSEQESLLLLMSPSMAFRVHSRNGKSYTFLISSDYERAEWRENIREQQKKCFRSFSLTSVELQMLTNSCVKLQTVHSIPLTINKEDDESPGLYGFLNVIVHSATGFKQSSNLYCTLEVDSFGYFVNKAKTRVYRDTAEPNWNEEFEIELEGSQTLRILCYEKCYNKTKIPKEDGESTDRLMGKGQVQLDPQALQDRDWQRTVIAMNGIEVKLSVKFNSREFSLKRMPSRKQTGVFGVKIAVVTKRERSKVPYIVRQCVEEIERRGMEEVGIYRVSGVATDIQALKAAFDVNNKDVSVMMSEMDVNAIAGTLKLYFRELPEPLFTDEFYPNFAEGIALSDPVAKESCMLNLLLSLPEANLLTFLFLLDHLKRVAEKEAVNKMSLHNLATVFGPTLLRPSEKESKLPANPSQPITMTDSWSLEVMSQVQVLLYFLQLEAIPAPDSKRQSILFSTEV
For assay [7], the system named is K562. Nature of the assay: Cell cycle arrest in human K562 cells assessed as accumulation at G2/M1 phase at 50 nM by Flow cytometry (reference value: 4.43%). In kind it is functional.
Assay [8] has as its system K562. In words: Induction of apoptosis in human K562 cells assessed as early apoptotic cells at 20 nM using annexin V-propidium iodide and annexin V staining by flow cytometry (reference value: 3.34%). Type of assay: functional.
Assay [9] deals with K562. In words: Induction of apoptosis in human K562 cells assessed as late apoptotic cells at 20 nM using annexin V-propidium iodide and annexin V staining by flow cytometry (reference value: […]%). In kind it is functional.
Assay [10] relates to K562. Nature of the assay: Induction of apoptosis in human K562 cells assessed as late apoptotic cells at 50 nM using annexin V-propidium iodide and annexin V staining by flow cytometry (reference value: […]%). In kind it is functional.
Assay [11] deals with K562. In words: Induction of apoptosis in human K562 cells assessed as viable cells at 100 nM using annexin V-propidium iodide and annexin V staining by flow cytometry (reference value: 87.02%). Particulars: read-out: Activity. In kind it is functional.
Assay [12] relates to K562. In words: Induction of apoptosis in human K562 cells assessed as early apoptotic cells at 100 nM using annexin V-propidium iodide and annexin V staining by flow cytometry (reference value: 3.34%). In kind it is functional.
Assay [13] relates to K562. In words: Induction of apoptosis in human K562 cells assessed as pre-necrotic cells at 100 nM using annexin V-propidium iodide and annexin V staining by flow cytometry (reference value: 1.42%). Type of assay: functional.
In assay [14] the test system is K562. In words: Induction of apoptosis in human K562 cells assessed as late apoptotic cells at 100 nM using annexin V-propidium iodide and annexin V staining by flow cytometry (reference value: […]%). Type of assay: functional.
Assay [15] deals with K562. Nature of the assay: Cell cycle arrest in human K562 cells assessed as accumulation at S phase at 100 nM by Flow cytometry (reference value: 46.15%). Type of assay: functional.
For assay [16], the system named is K562. In words: Cell cycle arrest in human K562 cells assessed as accumulation at G0/G1 phase at 50 nM by Flow cytometry (reference value: 49.42%). In kind it is functional.
Assay [17] concerns K562. In words: Cell cycle arrest in human K562 cells assessed as accumulation at G0/G1 phase at 20 nM by Flow cytometry (reference value: 49.42%). Type of assay: functional.
In assay [18] the test system is K562. Nature of the assay: Cell cycle arrest in human K562 cells assessed as accumulation at G2/M1 phase at 100 nM by Flow cytometry (reference value: 4.43%). In kind it is functional.
Assay [19] has as its system K562. Nature of the assay: Induction of apoptosis in human K562 cells assessed as viable cells at 20 nM using annexin V-propidium iodide and annexin V staining by flow cytometry (reference value: 87.02%). Type of assay: functional. Particulars: read-out: Activity.
In assay [20] the test system is K562. Nature of the assay: Cell cycle arrest in human K562 cells assessed as accumulation at G2/M1 phase at 20 nM by Flow cytometry (reference value: 4.43%). In kind it is functional.
The subject of assay [21] is K562. In words: Cell cycle arrest in human K562 cells assessed as accumulation at G0/G1 phase at 100 nM by Flow cytometry (reference value: 49.42%). Type of assay: functional.
Assay [22] has as its system K562. In words: Cell cycle arrest in human K562 cells assessed as accumulation at S phase at 50 nM by Flow cytometry (reference value: 46.15%). Type of assay: functional.
The test system of assay [23] is K562. Nature of the assay: Cell cycle arrest in human K562 cells assessed as accumulation at S phase at 20 nM by Flow cytometry (reference value: 46.15%). Type of assay: functional.
For assay [24], the system named is K562. Nature of the assay: Induction of apoptosis in human K562 cells assessed as early apoptotic cells at 50 nM using annexin V-propidium iodide and annexin V staining by flow cytometry (reference value: 3.34%). Type of assay: functional.
The test system of assay [25] is K562. Nature of the assay: Induction of apoptosis in human K562 cells assessed as pre-necrotic cells at 50 nM using annexin V-propidium iodide and annexin V staining by flow cytometry (reference value: 1.42%). Type of assay: functional.

The record followed here is ChEMBL document CHEMBL1759982, “Hybrid compounds as new Bcr/Abl inhibitors” (Bioorg Med Chem Lett, 2011).

Calls of active or inactive are those of the source. The calls are words filed in the database; no cut-off is given here.

One may read the IC50 as the concentration at which inhibition is half-maximal. Low readings indicate higher potency, high ones lower potency.

Chain of Bcr/Abl fusion protein (P00519 whole entry, the tested form may be a part): as the sequence (P00519 whole entry, looked up, the tested form may be a part) above
Chain of Bcr/Abl fusion protein (P11274 whole entry, further chain, the tested form may be a part): as the sequence (P11274 whole entry, looked up, the tested form may be a part) above

In the case of `Cc1cn(-c2cc(NC(=O)c3ccc(C)c(Nc4nccc(-c5cccnc5)n4)c3)cc(C(F)(F)F)c2)cn1` [NILOTINIB], the IC50 is 260 nM in the assay with K562 [1], 6.5 nM in the assay on K562 [2] and 3.4 nM in [3].
As for `Cc1ccc(C(=O)Nc2cc(-c3cnn(C)c3)cc(C(F)(F)F)c2)cc1Nc1nc(-c2cccnc2)cs1`, the IC50 in the assay on K562 [1] came to 5380 nM; against Bcr/Abl fusion protein, 491 nM; with K562 [2] it was 27 nM; in assay [3], 27.1 nM.
The corresponding values for `Cc1ccc(C(=O)Nc2cccc(C(F)(F)F)c2)cc1Nc1nc(-c2cccnc2)cs1` are 1440 nM, > 10000 nM, 3000 nM and 1240 nM.
The corresponding values for `Cc1cn(-c2cc(NC(=O)c3ccc(C)c(Nc4nc(-c5cccnc5)cs4)c3)cc(C(F)(F)F)c2)cn1` are 1830 nM, 671 nM, 28 nM and 30 nM.
The corresponding values for `Cc1ccc(C(=O)Nc2cc(-n3ccnc3)cc(C(F)(F)F)c2)cc1Nc1nc(-c2cccnc2)cs1` are 2140 nM, 507 nM, 28 nM and 36 nM.
Take `Cc1cn(-c2cc(Cl)cc(NC(=O)c3ccc(C)c(Nc4nc(-c5cccnc5)cs4)c3)c2)cn1`: the IC50 worked out at 2360 nM in the assay on K562 [1], 1300 nM against Bcr/Abl fusion protein, 812 nM in the assay with K562 [2] and 518 nM in [3].
The like results for `Cc1cn(-c2cc(NC(=O)c3ccc(C)c(Nc4nc(-c5cccnc5)cs4)c3)cc(C34CC5CC(CC(C5)C3)C4)c2)cn1` were, in that order, 11800 nM, > 2000 nM, 1060 nM and 2800 nM.
On to `Cc1ncn(-c2cc(NC(=O)c3ccc(C)c(Nc4nc(-c5cccnc5)cs4)c3)cc(C(F)(F)F)c2)n1`, for which the IC50 in the assay with K562 [1] amounted to 1630 nM; against Bcr/Abl fusion protein it was 480 nM; in the assay on K562 [2] it was 26 nM; in assay [3], 38 nM.
The like results for `Cc1cn(-c2cc(NC(=O)c3cccc(Nc4nc(-c5cccnc5)cs4)c3)cc(C(F)(F)F)c2)cn1` were, in that order, 1720 nM, 3780 nM, 3190 nM and 2730 nM.
With `Cc1cn(-c2cc(NC(=O)c3ccc(C)c(Nc4nc(-c5cccnc5)cs4)c3)cc(C(C)(C)C)c2)cn1`, the IC50 in the assay on K562 [1] was 640 nM; at Bcr/Abl fusion protein it was 20.1 nM; in the assay on K562 [2], 10 nM; in assay [3] it was 11 nM. Besides, the viability at 0.05 µM in the assay on K562 [4] is 73.8%. In addition, the Activity in the assay on K562 [5] is 1.14%; in the assay with K562 [7], 0.21%; in the assay on K562 [8], 5.06%; in the assay with K562 [9] it was 8.15%; with K562 [10] it was 16.34%; with K562 [12], 11.11%. Besides, the Activity was found to be 5.18% with K562 [13]; 27.04% with K562 [14]; 24.47% in the assay with K562 [15]; 69.3% in the assay with K562 [16]; 55.19% in the assay on K562 [17]; 0% with K562 [18]. Moreover, the Activity came out at 2.15% in the assay with K562 [20]; 75.53% with K562 [21]; 30.45% in the assay with K562 [22]; 42.66% with K562 [23]; 6.87% with K562 [24]; 3.11% in the assay on K562 [25]. In [6], the inhibition entry was “Active”. The viability at 0.1 µM with K562 [11] came out at 56.7%. Moreover, the viability at 0.02 µM in the assay on K562 [19] was 95.7%.
Regarding `Cc1cn(-c2cc(NC(=O)c3ccc(C)c(Nc4nc(-c5cccnc5)cs4)c3)cc(C(C)C)c2)cn1`, the IC50 in the assay on K562 [1] came to 2910 nM; against Bcr/Abl fusion protein it was 177 nM; in the assay on K562 [2] it was 31 nM; in assay [3], 51 nM.
On to `CCc1ccc(C(=O)Nc2cc(-n3cnc(C)c3)cc(C(F)(F)F)c2)cc1Nc1nc(-c2cccnc2)cs1`, for which the IC50 in the assay on K562 [1] came out at 2720 nM; at Bcr/Abl fusion protein, 5510 nM; in the assay on K562 [2], 1600 nM; in [3], 945 nM.
As to `Cc1ccc(C(=O)Nc2cc(-c3cn(C)nn3)cc(C(F)(F)F)c2)cc1Nc1nc(-c2cccnc2)cs1`, the IC50 with K562 [1] came to 3510 nM; against Bcr/Abl fusion protein, 277 nM; in the assay on K562 [2], 57 nM; in assay [3] it was 90 nM.
Consider `Cc1ccc(NC(=O)c2ccc(CN3CCN(C)CC3)cc2)cc1Nc1nccc(-c2cccnc2)n1` [IMATINIB], for which the half-maximal inhibitory concentration (IC50) in the assay with K562 [1] worked out at 6.05 nM; with K562 [2] it was 380 nM; in [3] it was 337 nM.
`Cc1cc(NC(=O)c2ccc(C)c(Nc3nc(-c4cccnc4)cs3)c2)cc(-n2cnc(C)c2)c1`: the IC50 amounted to 3290 nM with K562 [1], 774 nM against Bcr/Abl fusion protein, 449 nM in the assay with K562 [2] and 871 nM in assay [3].
